Reference: PubChem BioAssay (NCI)
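Following 48 hours of exposure in 96-well plates, responses at five concentrations were used to interpolate endpoints linearly. At the GI50, growth is halved. TGI denotes the concentration required for complete inhibition of growth.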

Columns and labels:
Assay in all cases: NCI-60 cell line screen, 48 h
[1] = system: M14 melanoma
[2] = system: SN12C renal
[3] = system: 786-0 renal
[4] = system: OVCAR-8 ovarian
[5] = system: NCI-H23 lung
[6] = system: SK-MEL-2 melanoma
[7] = system: SF-295 CNS
[8] = system: COLO 205 colon
[9] = system: SF-268 CNS
[10] = system: A498 renal
[11] = system: NCI-H226 lung
[12] = system: MALME-3M melanoma
[13] = system: MDA-MB-468 breast
[14] = system: RPMI-8226 leukemia
[15] = system: KM12 colon
[16] = system: SNB-19 CNS
[17] = system: HOP-62 NSCLC
[18] = system: UACC-257 melanoma
[19] = system: LOX IMVI melanoma
[20] = system: HS 578T breast
[21] = system: TK-10 renal
[22] = system: SW-620 colon
[23] = system: HL-60(TB) leukemia
[24] = system: SR leukemia
[25] = system: OVCAR-4 ovarian
[26] = system: A549 NSCLC
[27] = system: OVCAR-5 ovarian
[28] = system: SK-MEL-5 melanoma
[29] = system: PC-3 prostate
[30] = system: RXF 393 renal
[31] = system: UACC-62 melanoma
[32] = system: MDA-MB-231 breast
[33] = system: T-47D breast
[34] = system: UO-31 renal
[35] = system: U251 CNS
[36] = system: NCI-H522 lung
[37] = system: CAKI-1 renal
[38] = system: HT29 colon
[39] = system: HCC-2998 colon
[40] = system: CCRF-CEM leukemia
[41] = system: NCI-H460 lung
[42] = system: BT-549 breast
[43] = system: SK-MEL-28 melanoma
[44] = system: MOLT-4 leukemia
[45] = system: SF-539 CNS
[46] = system: K-562 leukemia
[47] = system: EKVX NSCLC
[48] = system: HCT-15 colon
[49] = system: MDA-MB-435
[50] = system: MCF7 breast
[51] = system: HCT-116 colon
[52] = system: HOP-92 NSCLC
[53] = system: OVCAR-3 ovarian
[54] = system: SK-OV-3 ovarian
[55] = system: ACHN renal
[56] = system: IGROV1 ovarian
[57] = system: DU-145 prostate
[58] = system: SNB-75 CNS

Cn1cc(-c2cc3nc(-c4cn(C)c5ncccc45)cc(N)n3n2)c2cc(F)ccc21 showed a GI50 [1] of 57 µM, a TGI [1] of over 100 µM and a GI50 [2] of 9.61 µM. For the same compound, the TGI [2] was over 100 µM, the GI50 [3] was 4.82 µM and the TGI [3] was 19.8 µM. The GI50 [4] was 4.6 µM, the TGI [4] was 40.5 µM and the GI50 [5] was 13.7 µM. The TGI [5] was 58.2 µM, the GI50 [6] was 10.4 µM and the TGI [6] was 23.3 µM. It also gave a GI50 [7] of 3.22 µM, a TGI [7] of 14 µM and a GI50 [8] of 6.78 µM. For the same compound, the TGI [8] was over 100 µM, the GI50 [9] was 15.6 µM and the TGI [9] was over 100 µM. It also gave a GI50 [10] of 50 µM, a TGI [10] of over 100 µM and a GI50 [11] of 4.04 µM. It also gave a TGI [11] of 20.2 µM, a GI50 [12] of 10.6 µM and a TGI [12] of 37.7 µM. It also gave a GI50 [13] of 3.81 µM, a TGI [13] of 22.1 µM and a GI50 [14] of 13.6 µM. For the same compound, the TGI [14] was over 100 µM, the GI50 [15] was over 100 µM and the TGI [15] was over 100 µM. It also gave a GI50 [16] of 5.79 µM, a TGI [16] of 24.3 µM and a GI50 [17] of 4.05 µM. It also gave a TGI [17] of 16.6 µM, a GI50 [18] of 65.6 µM and a TGI [18] of over 100 µM. It also gave a GI50 [19] of 2.43 µM, a TGI [19] of 5.78 µM and a GI50 [20] of 11.3 µM. For the same compound, the TGI [20] was 69.6 µM, the GI50 [21] was 10.3 µM and the TGI [21] was 31.3 µM. For the same compound, the GI50 [22] was 52.7 µM, the TGI [22] was over 100 µM and the GI50 [23] was over 100 µM. It also gave a TGI [23] of over 100 µM, a GI50 [24] of 2.48 µM and a TGI [24] of over 100 µM. It also gave a GI50 [25] of 4.12 µM, a TGI [25] of 20.9 µM and a GI50 [26] of 7.71 µM. The TGI [26] was over 100 µM, the GI50 [27] was 25.2 µM and the TGI [27] was over 100 µM. It also gave a GI50 [28] of 46.2 µM, a TGI [28] of over 100 µM and a GI50 [29] of 11 µM. For the same compound, the TGI [29] was over 100 µM, the GI50 [30] was 2.61 µM and the TGI [30] was 9.35 µM. For the same compound, the GI50 [31] was 20.4 µM, the TGI [31] was over 100 µM and the GI50 [32] was 9.62 µM. The TGI [32] was 26.8 µM, the GI50 [33] was 6.15 µM and the TGI [33] was 67.1 µM. It also gave a GI50 [34] of 31.9 µM, a TGI [34] of over 100 µM and a GI50 [35] of 4.12 µM. It also gave a TGI [35] of 15.4 µM, a GI50 [36] of 10.8 µM and a TGI [36] of 30.6 µM. The GI50 [37] was 13 µM, the TGI [37] was over 100 µM and the GI50 [38] was 4.14 µM. The TGI [38] was 28.4 µM, the GI50 [39] was 61.2 µM and the TGI [39] was over 100 µM. It also gave a GI50 [40] of 7.83 µM, a TGI [40] of over 100 µM and a GI50 [41] of 5.43 µM. The TGI [41] was over 100 µM, the GI50 [42] was 13.3 µM and the TGI [42] was 48 µM. For the same compound, the GI50 [43] was over 100 µM, the TGI [43] was over 100 µM and the GI50 [44] was 20 µM. For the same compound, the TGI [44] was over 100 µM, the GI50 [45] was 10.6 µM and the TGI [45] was 28.8 µM. It also gave a GI50 [46] of 10.5 µM, a TGI [46] of over 100 µM and a GI50 [47] of 19 µM. It also gave a TGI [47] of over 100 µM, a GI50 [48] of over 100 µM and a TGI [48] of over 100 µM. For the same compound, the GI50 [49] was over 100 µM, the TGI [49] was over 100 µM and the GI50 [50] was 13.4 µM. For the same compound, the TGI [50] was over 100 µM, the GI50 [51] was over 100 µM and the TGI [51] was over 100 µM. The GI50 [52] was 11.2 µM, the TGI [52] was 46.7 µM and the GI50 [53] was 14.1 µM. It also gave a TGI [53] of 57.8 µM, a GI50 [54] of 14.4 µM and a TGI [54] of 34.5 µM. It also gave a GI50 [55] of 4.21 µM, a TGI [55] of 20.6 µM and a GI50 [56] of 4.45 µM. For the same compound, the TGI [56] was 53.1 µM, the GI50 [57] was 8.97 µM and the TGI [57] was over 100 µM.

Compound CN(C)c1nc(NCCNS(=O)(=O)c2ccc(C(=O)/C=C/c3ccccc3)cc2)nc(N2CCOCC2)n1 has a GI50 [1] of 14.6 µM, a TGI [1] of 31.6 µM and a GI50 [2] of 14.6 µM. It also gave a TGI [2] of 28.6 µM, a GI50 [3] of 14.8 µM and a TGI [3] of 29.1 µM. For the same compound, the GI50 [4] was 16.4 µM, the TGI [4] was 31.8 µM and the GI50 [5] was 16 µM. The TGI [5] was 30.4 µM, the GI50 [6] was 15.3 µM and the TGI [6] was 29.5 µM. It also gave a GI50 [7] of 15.6 µM, a TGI [7] of 30.4 µM and a GI50 [8] of 20.2 µM. For the same compound, the TGI [8] was 40.3 µM, the GI50 [9] was 13.7 µM and the TGI [9] was 31 µM. The GI50 [10] was 14.6 µM, the TGI [10] was 27.8 µM and the GI50 [11] was 13.5 µM. For the same compound, the TGI [11] was 31.7 µM, the GI50 [12] was 15.2 µM and the TGI [12] was 29.3 µM. For the same compound, the GI50 [13] was 4.17 µM, the TGI [13] was 17.7 µM and the GI50 [14] was 3.25 µM. It also gave a TGI [14] of 11.4 µM, a GI50 [15] of 2 µM and a TGI [15] of 4.23 µM. The GI50 [16] was 14.8 µM, the TGI [16] was 29.1 µM and the GI50 [17] was 16.4 µM. It also gave a TGI [17] of 32.1 µM, a GI50 [18] of 17.9 µM and a TGI [18] of 32.3 µM. For the same compound, the GI50 [19] was 1.97 µM, the TGI [19] was 4.13 µM and the GI50 [20] was 17.1 µM. For the same compound, the TGI [20] was 64.4 µM, the GI50 [21] was 16.4 µM and the TGI [21] was 30.2 µM. The GI50 [58] was 5.49 µM, the TGI [58] was 19.8 µM and the GI50 [22] was 3.41 µM. The TGI [22] was 12.7 µM, the GI50 [23] was 6.18 µM and the TGI [23] was 42.1 µM. The GI50 [24] was 3.2 µM, the TGI [24] was over 100 µM and the GI50 [25] was 14.3 µM. For the same compound, the TGI [25] was 27.8 µM, the GI50 [26] was 13.6 µM and the TGI [26] was 28.3 µM. For the same compound, the GI50 [27] was 12.1 µM, the TGI [27] was 26 µM and the GI50 [28] was 15.9 µM. The TGI [28] was 29.4 µM, the GI50 [29] was 8.63 µM and the TGI [29] was 23.6 µM. The GI50 [30] was 7.87 µM, the TGI [30] was 22.8 µM and the GI50 [31] was 12 µM. The TGI [31] was 25 µM, the GI50 [32] was 13.9 µM and the TGI [32] was 27.6 µM. For the same compound, the GI50 [33] was 16 µM, the TGI [33] was 37.4 µM and the GI50 [34] was 11.2 µM. The TGI [34] was 25 µM, the GI50 [35] was 11.7 µM and the TGI [35] was 25.9 µM. The GI50 [36] was 13.6 µM, the TGI [36] was 27.1 µM and the GI50 [37] was 12.2 µM. It also gave a TGI [37] of 24.6 µM, a GI50 [38] of 3.8 µM and a TGI [38] of 13.1 µM. For the same compound, the GI50 [39] was 16.7 µM, the TGI [39] was 31.1 µM and the GI50 [40] was 4.41 µM. For the same compound, the TGI [40] was 75.9 µM, the GI50 [41] was 18.2 µM and the TGI [41] was 38.3 µM. The GI50 [42] was 11.2 µM, the TGI [42] was 23.7 µM and the GI50 [43] was 17.2 µM. It also gave a TGI [43] of 33.1 µM, a GI50 [44] of 4.27 µM and a TGI [44] of over 100 µM. For the same compound, the GI50 [45] was 11.1 µM, the TGI [45] was 24.3 µM and the GI50 [46] was 2.19 µM. The TGI [46] was over 100 µM, the GI50 [47] was 14.7 µM and the TGI [47] was 30.6 µM. For the same compound, the GI50 [48] was 5.21 µM, the TGI [48] was 20.5 µM and the GI50 [49] was 14.7 µM. For the same compound, the TGI [49] was 28.3 µM, the GI50 [50] was 3.49 µM and the TGI [50] was 13.8 µM. It also gave a GI50 [51] of 1.82 µM, a TGI [51] of 3.59 µM and a GI50 [52] of 12.2 µM. For the same compound, the TGI [52] was 26.6 µM, the GI50 [53] was 15.3 µM and the TGI [53] was 28.6 µM. It also gave a GI50 [54] of 15.6 µM, a TGI [54] of 29.8 µM and a GI50 [55] of 18.2 µM. The TGI [55] was 36.3 µM, the GI50 [56] was 15.3 µM and the TGI [56] was 31.9 µM. The GI50 [57] was 15.1 µM and the TGI [57] was 28.4 µM.
